Read-outs that look alike come from different tables or passages of the source.
What was measured:
[1] = test system: Substance P Induced Relaxation of the Pig Coronary Arteries; experiment: Antagonism of substance P induced relaxation of the pig coronary arteries; settings: 30 min incubation
Procedure, shortened: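 Inverted pig coronary artery segments, endothelium outside, in Krebs-Henseleit at 37 °C (95/5 O2/CO2), isometric tension recorded. After prostaglandin F2α (10^-5 M) precontraction, substance P (3×10^-10 M and 10^-9 M cumulative) relaxation repeated after 30 min incubation with test compound.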

[2] = test system: Substance P Induced Plasma Extravasation; experiment: Antagonism of substance P induced plasma extravasation in guinea-pigs; format: in vivo, guinea-pig; settings: Cavia porcellus, 1 hour prior to substance P
Description: Antagonism of Substance P Induced Plasma Extravasation in Guinea-pigs
Plasma travasation was induced by injection of substance P (2 mg/kg) in the femoral artery of female guinea-pigs. Evans Blue dye (30 mg/kg) was injected simultaneously. The test compound or solvent was administered subcutaneous (s.c.) or orally (p.o.) 1 hour prior to substance P injection. 10 minutes after challenge, the animals were checked for blue colouring (a direct measure for plasma extravasation) of the nose, the forepaws, and the conjunctiva. 30 minutes after challenge, the animals were sacrificed by CO2 gas inhalation and checked for blue colouring of the trachea and the urinary bladder. […]

[3] = test compound concentration 3 × 10^-9 (unit not given)
[4] = sc, 10 min, s.c., conjunctiva, read-out: lowest active dose (LAD), conjunctiva
[5] = sc, 10 min, s.c., forepaws, read-out: lowest active dose (LAD), forepaws
[6] = sc, 10 min, s.c., nose, read-out: lowest active dose (LAD), nose
[7] = sc, 0.5 h, s.c., trachea, read-out: lowest active dose (LAD), trachea
[8] = sc, 0.5 h, s.c., urinary bladder, read-out: lowest active dose (LAD), urinary bladder
[9] = test compound concentration 3 × 10^-8 (unit not given)
[10] = po, 10 min, p.o., conjunctiva, read-out: lowest active dose (LAD), conjunctiva
[11] = po, 10 min, p.o., forepaws, read-out: lowest active dose (LAD), forepaws
[12] = po, 10 min, p.o., nose, read-out: lowest active dose (LAD), nose
[13] = po, 0.5 h, p.o., trachea, read-out: lowest active dose (LAD), trachea
[14] = po, 0.5 h, p.o., urinary bladder, read-out: lowest active dose (LAD), urinary bladder

Row | SMILES | % inhibition of the response to 10^-9 M substance P [1, 3] [%] | minimal effective dose [2, 4] [mg/kg] | minimal effective dose [2, 5] [mg/kg] | minimal effective dose [2, 6] [mg/kg] | minimal effective dose [2, 7] [mg/kg] | minimal effective dose [2, 8] [mg/kg] | % inhibition of the response to 10^-9 M substance P [1, 9] [%] | minimal effective dose [2, 10] [mg/kg] | minimal effective dose [2, 11] [mg/kg] | minimal effective dose [2, 12] [mg/kg] | minimal effective dose [2, 13] [mg/kg] | minimal effective dose [2, 14] [mg/kg]
1 | Cn1ccc2c1CCn1ccnc1C2=C1CCN([C@H]2CCN(C(=O)c3cc(C(F)(F)F)cc(C(F)(F)F)c3)[C@@H](Cc3ccccc3)C2)CC1 (racemic) [Compound 3, (±)-cis-1-[3,5-bis(trifluoromethyl)benzoyl]-4-[4-(5,6,7,10-tetrahydro-7-methylimidazo[1,2-a]-pyrrolo[3,2-d]azepin-10-ylidene)-1-piperidinyl]-2-(phenylmethyl)piperidine] | 37.3 | 2.5 | 2.5 | 2.5 | 10 | 10 | – | – | – | – | – | –
2 | Cc1cc(C)cc(C(=O)N2CCC(N3CCC(C4c5ccccc5Cn5ccnc54)CC3)CC2Cc2ccccc2)c1 (stereo not drawn) [Compound 108] | 2.6 | 10 | 10 | 10 | 10 | 10 | – | – | – | – | – | –
3 | O=C(c1cc(C(F)(F)F)cc(C(F)(F)F)c1)N1CC[C@H](N2CCC(=C3c4ccccc4CCn4c(CO)cnc43)CC2)C[C@@H]1Cc1ccccc1 (racemic) [Compound 4, (±)-cis-1-[3,5-bis(trifluoromethyl)benzoyl]-4-[4-[5,6-dihydro-3-(hydroxymethyl)-11H-imidazo[2,1-b][3]benzazepin-11-ylidene]-1-piperidinyl]-2-(phenylmethyl)piperidine] | – | 10 | 10 | 10 | 10 | 10 | 97.0 | – | – | – | – | –
4 | O=C(c1cc(C(F)(F)F)cc(C(F)(F)F)c1)N1CC[C@@H](N2CCC(=C3c4ccsc4CCn4ccnc43)CC2)C[C@H]1Cc1ccccc1 (relative stereo) [Compound 18] | 39.8 | 2.5 | 10 | 10 | 10 | 10 | – | – | – | – | – | –
5 | Cc1cc(C)cc(C(=O)N2CC[C@H](N3CCC(=C4c5ccsc5CCn5ccnc54)CC3)C[C@H]2Cc2ccccc2)c1 (relative stereo) [Compound 39] | 42.9 | 2.5 | 2.5 | 2.5 | 10 | 10 | – | – | – | – | – | –
6 | O=C(c1cc(C(F)(F)F)cc(C(F)(F)F)c1)N1CC[C@@H](N2CCC(=C3c4ccccc4CCn4c(CO)cnc43)CC2)C[C@@H]1Cc1ccccc1 (relative stereo) [Compound 5] | 100.0 | – | – | – | – | – | – | 2.5 | 2.5 | 2.5 | 10 | 10
7 | O=C(c1cc(C(F)(F)F)cc(C(F)(F)F)c1)N1CC[C@@H](N2CCC(=C3c4ccsc4CCn4ccnc43)CC2)C[C@@H]1Cc1ccccc1 (relative stereo) [Compound 19] | 78.1 | 2.5 | 2.5 | 2.5 | 2.5 | 10 | – | – | – | – | – | –
8 | Cc1cc(C)cc(C(=O)N2CC[C@@H](N3CCC(=C4c5ccccc5CCn5c(CO)cnc54)CC3)C[C@@H]2Cc2ccccc2)c1 (relative stereo) [Compound 20] | 9.5 | 2.5 | 2.5 | 2.5 | 2.5 | 2.5 | – | – | – | – | – | –
9 | Cn1ccc2c1CCn1ccnc1C2=C1CCN([C@@H]2CCN(C(=O)c3cc(C(F)(F)F)cc(C(F)(F)F)c3)[C@@H](Cc3ccccc3)C2)CC1 (racemic) [Compound 2, (±)-trans-1-[3,5-bis(trifluoromethyl)benzoyl]-4-[4-(5,6,7,10-tetrahydro-7-methylimidazo[1,2-a]pyrrolo[3,2-d]azepin-10-ylidene)-1-piperidinyl]-2-(phenylmethyl)piperidine] | – | 0.16 | 0.16 | 0.16 | 2.5 | 2.5 | 96.5 | – | – | – | – | –
10 | Cc1cc(C)cc(C(=O)N2CC[C@@H](N3CCC(=C4c5ccn(C)c5CCn5ccnc54)CC3)C[C@@H]2Cc2ccccc2)c1 (relative stereo) [Compound 34] | 43.5 | 2.5 | 0.63 | 0.63 | 0.63 | 0.63 | – | – | – | – | – | –
11 | O=C(c1cc(C(F)(F)F)cc(C(F)(F)F)c1)N1CC[C@H](N2CCC(=C3c4ccccc4CCn4c3nc3ccccc34)CC2)C[C@H]1Cc1ccccc1 (relative stereo) [Compound 72] | 97.4 | – | – | – | – | – | – | 10 | 10 | 10 | 10 | 10
12 | O=C(c1cc(C(F)(F)F)cc(C(F)(F)F)c1)N1CC[C@@H](N2CCC(=C3c4sccc4CCn4ccnc43)CC2)C[C@@H]1Cc1ccccc1 (relative stereo) [Compound 7] | 83.1 | 2.5 | 10 | 2.5 | 10 | 10 | – | – | – | – | – | –
13 | O=C(c1cc(C(F)(F)F)cc(C(F)(F)F)c1)N1CC[C@H](N2CCC(=C3c4ccccc4OCn4ccnc43)CC2)C[C@@H]1Cc1ccccc1 (relative stereo) [Compound 113] | 87.9 | 10 | 10 | 10 | 10 | 10 | – | – | – | – | – | –
14 | Cc1cnc2n1CCc1ccccc1C2=C1CCN([C@H]2CCN(C(=O)c3cc(C(F)(F)F)cc(C(F)(F)F)c3)[C@@H](Cc3ccccc3)C2)CC1 (relative stereo) [Compound 53] | 44.4 | 10 | 10 | 10 | 10 | 10 | – | – | – | – | – | –
15 | O=C(c1cc(C(F)(F)F)cc(C(F)(F)F)c1)N1CC[C@@H](N2CCC(=C3c4ccccc4OCn4ccnc43)CC2)C[C@@H]1Cc1ccccc1 (relative stereo) [Compound 114] | 100.0 | 2.5 | 10 | 2.5 | 10 | 10 | – | – | – | – | – | –
16 | Cc1cc(C)cc(C(=O)N2CC[C@@H](N3CCC(=C4c5sccc5CCn5ccnc54)CC3)C[C@H]2Cc2ccccc2)c1 (relative stereo) [Compound 35] | 27.7 | 10 | 10 | 10 | 10 | 10 | – | – | – | – | – | –
17 | O=C(c1cc(C(F)(F)F)cc(C(F)(F)F)c1)N1CC[C@@H](N2CCC(=C3c4ccccc4CCn4ccnc43)CC2)C[C@@H]1Cc1ccccc1 (relative stereo) [Compound 22] | 83.2 | 10 | 10 | 10 | 10 | 10 | – | – | – | – | – | –
18 | Cc1cc(C)cc(C(=O)N2CC[C@@H](N3CCC(C4c5ccccc5CCn5ccnc54)CC3)C[C@@H]2Cc2ccccc2)c1 (stereo partly drawn) [Compound 27] | 5.1 | 2.5 | 2.5 | 2.5 | 10 | 2.5 | – | – | – | – | – | –

Source: US6251894A, “1-(1,2-disubstituted piperidinyl)-4 (fused imidazole)-piperidine derivatives” (Janssen Pharmaceuticals N.V., priority 1995, dated 2001)
